In patent US11618746B2, “Inhibitors of APOL1 and methods of using same” (Vertex Pharmaceuticals Incorporated, priority 2018, dated 2023) one finds IC50 data, which are given here for 15 molecules.

A value given as a limit tells only on which side of the number the result lay.

The test has as its target T1, G1 APOL1 (Homo sapiens, UniProt O14791, I384M/S342G).
T1 construct: expressed in transfected cells
T1 sequence (O14791 28-398 S342G/I384M): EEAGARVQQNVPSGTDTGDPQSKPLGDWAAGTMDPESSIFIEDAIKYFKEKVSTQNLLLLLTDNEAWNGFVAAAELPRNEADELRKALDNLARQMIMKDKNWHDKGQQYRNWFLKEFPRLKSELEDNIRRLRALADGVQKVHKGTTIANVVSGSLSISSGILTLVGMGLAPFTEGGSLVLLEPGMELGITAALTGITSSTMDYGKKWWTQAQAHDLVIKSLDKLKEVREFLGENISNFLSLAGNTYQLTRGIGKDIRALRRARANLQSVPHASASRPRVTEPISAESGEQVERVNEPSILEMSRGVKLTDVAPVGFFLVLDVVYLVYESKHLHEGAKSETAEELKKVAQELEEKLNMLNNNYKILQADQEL
Kind of test: Acute APOL1 Thallium Assay with inducible stable clones of HEK 293 cells. In kind it is cell-based. To be noted: HEK T-Rex tetracycline-inducible cells expressing G1 APOL1 (clone G1 DC3.25); inhibition of thallium flux rate. The procedure, abridged: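 HEK293 T-Rex cells with tetracycline-inducible G1 APOL1 (clone DC3.25), 26000 cells per well, induced with tetracycline at plating and incubated at 37° C, 5% CO2. Pore activity read on FLIPR as Tl+ influx via fluorescence of AM-ester-loaded thallium-sensitive dye.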
Consider `O=C(CCc1c(-c2cc(F)cc(F)c2)[nH]c2ccccc12)N[C@@H]1C(=O)NC[C@H]1O` [Compound 127, 3-[2-(3,5-difluorophenyl)-1H-indol-3-yl]-N-[(3S,4R)-4-hydroxy-2-oxo-pyrrolidin-3-yl]propanamide], for which the IC50 was in the range of 250 to 1000 nM.
Take `O=C(CCc1c(-c2ccc(F)cc2)[nH]c2c(Cl)cccc12)N[C@@H]1C(=O)NC[C@H]1O` [Compound 73]: the IC50 is < 250 nM.
Under `CN(C(=O)CCc1c(-c2ccc(F)cc2)[nH]c2ccc(F)cc12)C1CCNC1=O` (stereo not drawn) [Compound 50] stands 250 to 1000 nM; under `Cc1cc(F)cc2c(CCC(=O)N[C@@H]3C(=O)NC[C@H]3O)c(-c3ccc(F)cc3)[nH]c12` [Compound 37], < 250 nM.
On to `O=C(CCc1c(-c2ccc(F)cc2)[nH]c2ccc(C(F)(F)F)cc12)N[C@@H]1C(=O)NC[C@H]1O` [Compound 108, 3-[2-(4-fluorophenyl)-5-(trifluoromethyl)-1H-indol-3-yl]-N-[(3S,4R)-4-hydroxy-2-oxo-pyrrolidin-3-yl]propanamide], for which the IC50 is < 250 nM.
Take `Cc1c(F)c(F)cc2c(CCC(=O)N[C@@H]3C(=O)NC[C@H]3O)c(-c3ccc(F)cc3)[nH]c12` [Compound 98, 3-[5,6-difluoro-2-(4-fluorophenyl)-7-methyl-1H-indol-3-yl]-N-[(3S,4R)-4-hydroxy-2-oxo-pyrrolidin-3-yl]propanamide]: the IC50 was < 250 nM.
Consider `O=C(CCc1c(-c2ccc(F)cc2)[nH]c2ccc(F)cc12)NC1CCNC1=O` (stereo not drawn) [Compound 48], for which the IC50 was < 250 nM.
In the case of `O=C(CCc1c(-c2ccc(F)cc2)[nH]c2c(F)cccc12)N[C@@H]1C(=O)NC[C@H]1O` [Compound 76], the IC50 was < 250 nM.
Take `CC1C[C@H](NC(=O)CCc2c(-c3ccc(F)cc3)[nH]c3c(F)cc(F)cc23)C(=O)N1` (mixture of isomers) [Compound 6]: the IC50 lay within 250 to 1000 nM.
As for `O=C(CCc1c(-c2ccccc2)[nH]c2c(F)c(F)c(F)cc12)N[C@@H]1C(=O)NC[C@H]1O` [Compound 80], the IC50 was < 250 nM.
For the molecule `O=C(CCc1c(-c2ccc(F)c(F)c2)[nH]c2ccccc12)N[C@@H]1C(=O)NC[C@H]1O` [Compound 129, 3-[2-(3,4-difluorophenyl)-1H-indol-3-yl]-N-[(3S,4R)-4-hydroxy-2-oxo-pyrrolidin-3-yl]propanamide], the IC50 was < 250 nM.
As for `COc1cc(F)cc2c(CCC(=O)N[C@@H]3C(=O)NC[C@H]3O)c(-c3ccc(F)cc3)[nH]c12` [Compound 40], the IC50 was < 250 nM.
As for `O=C(CCc1c(-c2ccccc2)[nH]c2cc(F)cc(F)c12)N[C@@H]1C(=O)NC[C@H]1O` [Compound 85], the IC50 was < 250 nM.
Turning to `O=C(CCc1c(-c2ccccc2)[nH]c2c(F)c(F)ccc12)N[C@@H]1C(=O)NC[C@H]1O` [Compound 59], the IC50 is < 250 nM.
On to `O=C(CCc1c(-c2ccc(Cl)c(F)c2)[nH]c2ccccc12)N[C@@H]1C(=O)NC[C@H]1O` [Compound 120], for which the IC50 was < 250 nM.

For orientation: IC50 means the concentration needed to halve the response being measured.
